One data set has as its system Trypanosoma cruzi. Put plainly: Antitrypanosomal activity against bloodstream form of Trypanosoma cruzi Y trypomastigotes infected in African green monkey Vero cells assessed as increase in parasite lysis measured after 24 hrs by Neubauer chamber method. It counts as functional, organism-based.
Data set [1] can be described thus: Mutagenicity in Salmonella typhimurium TA97 assessed as revertant/ug measured after 20 mins in absence of S9 fraction by microsome assay. Format: toxicity. The following applies: salmonella enterica subsp. enterica serovar typhimurium, microsomes.
Data set [2] is described as follows: Mutagenicity in Salmonella typhimurium TA97 assessed as revertant/ug measured after 20 mins in presence of S9 fraction by microsome assay. It counts as toxicity, subcellular. The following applies: salmonella enterica subsp. enterica serovar typhimurium, s9, 20 min.
The nature of data set [3]: Mutagenicity in Salmonella typhimurium TA100 assessed as revertant/ug measured after 20 mins in absence of S9 fraction by microsome assay. Format: toxicity. The following applies: salmonella enterica subsp. enterica serovar typhimurium, microsomes.
Data set [4] in a line: Mutagenicity in Salmonella typhimurium TA100 assessed as revertant/ug measured after 20 mins in presence of S9 fraction by microsome assay. Format: toxicity, subcellular. The following applies: salmonella enterica subsp. enterica serovar typhimurium, s9, 20 min.

Some results are limits rather than exact numbers.

We go through five molecules from ChEMBL document CHEMBL4680133, “Novel nitroimidazole derivatives evaluated for their trypanocidal, cytotoxic, and genotoxic activities” (Eur J Med Chem, 2020).

For `Cn1cnc([N+](=O)[O-])c1-n1cc(-c2cccc(N)c2)nn1`, in the data set with Trypanosoma cruzi, the IC50 was 41.2 µM. `Cn1cnc([N+](=O)[O-])c1-n1ccnc1`: the IC50 with Trypanosoma cruzi was > 2000 µM.

Take `Cn1cnc([N+](=O)[O-])c1-n1cncn1`: the IC50 with Trypanosoma cruzi was determined as 354 µM. With `Cn1cnc([N+](=O)[O-])c1-n1cccn1`, the Activity was 11.5 revertants/µg in data set [1], “Non-Toxic” in data set [2], 65.5 revertants/µg in data set [3] and 35.5 revertants/µg in data set [4]. With `Cn1cnc([N+](=O)[O-])c1-n1cc(-c2ccccc2)nn1`, in the data set on Trypanosoma cruzi, the IC50 was 25.2 µM.
